Holding throughout (type): cell-based
The subject of data set [1] is Atoh1 enhancer reporter in HEK293 cells. Put plainly: Atoh1 reporter cell line, firefly luciferase normalized to renilla luciferase. The following applies: Homo sapiens, HEK293, 48 h, Atoh1 reporter HEK293 cells, treated 2 days, dose response; read-out: ED50 (the source's name). The protocol: FIG. 2. Dose response data for selected hits. Atoh1 reporter cells plated in 384 well plates were treated with test compounds or vehicle controls for 2 days. Firefly luciferase signal was measured and normalized to the renilla luciferase signal. Results from duplicate wells (circles and triangles) are expressed relative to normalized controls treated with DMSO.
A reporter cell line expressed in HEK293 cells in which Atoh1 enhancer elements flanked a minimal promoter driving firefly luciferase expression was created. Dose response data was generated in the reporter cell line. Atoh1 reporter cells plated in […] plates were treated with test compounds or vehicle controls for 2 days. Firefly luciferase signal was measured and normalized to the renilla luciferase signal.
For high-throughput screening, HEK293 cells were transduced with a lentiviral vector containing a concatamer of Atoh1 enhancer A and B elements, the Promega minP minimal promoter, firefly luciferase coding sequence and hygromycin selectable marker. After selection, the cells were transduced with a second lentiviral vector containing the EF1α constitutive promoter, Renilla luciferase and puromycin selectable marker. A clonal derivative expressing both transgenes was expanded and banked for screening.
A screening assay was done by plating 8000 cells/well in 384 well plates, and treating for 48 hours with 1 and 10 μM test compound in DMSO, vehicle control, or the GSK-3B inhibitor, BIO, as a positive control. Firefly and Renilla luciferase were measured sequentially using Dual-Glo (Promega) with an Envision multi-label plate reader (Perkin Elmer). Data were analyzed after normalizing firefly luciferase signals to Renilla luciferase signals. A primary screen of 50,000 diverse compounds identified 140 hits. […] 10 of these 41 hits were selected for further analysis
To confirm activity in the 10 selected hits, the test compounds were reassayed at 3.3×10^−9, 1×10^−8, 3.3×10^−8, 1×10^−7, 3.3×10^−7, 1×10^−6, 3.3×10^−6 and 1×10^−5 molar concentrations. […] Results from duplicate wells (circles and triangles) are expressed relative to normalized controls treated with DMSO.

Data set [2] concerns Atoh1 expression in P5 rat cochlear explants. Put plainly: Cochlear explant assay, Atoh1 expression by qRT-PCR after tobramycin pretreatment. Conditions: 1 mM tobramycin pretreatment, then compound vs DMSO. The procedure:
FIG. 3. Postnatal day 5 rat cochleae were cultured for 2 days with 1 mM tobramycin and then 3 days with test compound or vehicle. Relative Atoh1 expression was measured by qRT-PCR. Results are expressed as average±S.D. for >7 individual cochleae per treatment group. * p<0.05, student's t-test.
The ten selected hits of Example 43 were assayed for the ability to induce Atoh1 expression in primary cultured cochlear explants from the neonatal rat. Postnatal day 5 (P5) rat cochlear explants were cultured with the ototoxic aminoglycoside antibiotic, tobramycin (1 mM), for 3 days prior to drug testing, as an in vitro model of drug-induced hearing loss. […] See, e.g., Ruedi, et al., Larynoscope 62:333-357 (1952). After the 3 day tobramycin pretreatment, the cochlear explants were cultured with the compounds of Example 43 or DMSO vehicle for an additional 2 days. Atoh1 expression levels, measured by qRT-PCR and normalized to ribosomal 18S expression, after hit compound treatments are shown in FIG. 3.

For data set [3], the system named is Atoh1-GFP mouse cochlear explants. The data set can be described thus: Atoh1-GFP reporter mouse cochlear explants, confocal imaging and immunostaining. Conditions: 40 μM, 3 days. The procedure: FIG. 4. Confocal images of E13 and P0 Atoh1-GFP mouse cochlear explants cultured for 3 days in 40 μM Compound 4 or DMSO and immunostained with antibodies against the supporting cell marker Sox2 (red), the hair cell marker MyosinVIIa (Myo7a, blue) and an anti-GFP antibody (green). […] Scale bars: A and B (50 μm); C and E (500 μm); D and F (25 μm).
To identify which cells expressed Atoh1 after hit compound treatment, we utilized cochlear explants from embryonic and postnatal Atoh1-GFP reporter mice. See, e.g., Lumpkin, et al., Gene Expression Patterns 3:389-395 (2003). Both embryonic and neonatal cochleae were used in order to identify if there was a temporal window in which tissue was more responsive to drug treatment.

In a further data set the test system is Atoh1 reporter cell line. Put plainly: Transcriptional profiling of Atoh1 reporter cell line by gene profiling microarray. The following applies: 5 μM, 2 days, vs DMSO. The procedure:
FIG. 5. An Atoh1 reporter cell line was treated with 5 μM Compound 4 or DMSO for 2 days. Gene expression was measured with a gene profiling microarray and plotted.
In an attempt to identify the signaling pathway by which Compound 4 induces Atoh1 expression, transcriptional profiling of the Atoh1 reporter cell line was compared after treatment with Compound 4 or DMSO control. The Atoh1 reporter cell line was treated with 5 μM or Compound 4 or DMSO for 2 days. […] An upregulation of endogenous Atoh1 with Compound 4 treatment in the reporter line was not observed, presumably because the overexpressed reporter sequence outcompeted the native Atoh1 regulatory domain. […] See, e.g., Martinez, et al., Toxicol. Sci. 82:429-435, (2004); Ito, et al., J. Immunotoxicol. 3(1):21-30 (2006); and Sun, et al., Nucleic Acids Res. 32(15):4512-4523 (2004). […] See, e.g., Qian, et al., J. Immunol. 166:2553-2561 (2001) and Kimura, et al., Biochem. Biophys. Res. Comm. 264:86-92 (1999).

Where [4] appears, read: P0 Atoh1-GFP mouse cochlear explants.

Entries after “also recorded” stand apart in the source; their conditions may differ.

As to `Cc1c(C(=O)Nc2nccs2)oc2ccccc12` [Compound 4], in data set [1], the EC50 turned out to be 1300 nM. Moreover, the “Atoh1 expression by qRT-PCR normalized to ribosomal 18S” value in data set [2] is “largest stimulation of Atoh1 expression”. For the same compound, in data set [3] (Atoh1-GFP mouse cochlear explants), the “averaged total length of the organ of Corti vs DMSO” value is on record as “no difference”. In addition, the “GFP+ hair cells in E13 explants vs DMSO control” value in data set [3] (E13 Atoh1-GFP mouse cochlear explants) is recorded as “greater number of GFP-positive hair cells; also recorded: increase in GFP+ hair cells”. Moreover, in data set [3] (setting [4]), the “GFP+ hair cells with Sox2+ nuclei in P0 explants” value was “numerous ectopic GFP+ hair cells with weak nuclear Sox2 expression; also recorded: numerous GFP+/MyosinVIIa+ cells were observed to have Sox2+ nuclei” and the “GFP-positive hair cell domain in P0 explants vs DMSO control” value is given as “expansion in the GFP+ hair cell domain; also recorded: expansion of the GFP-positive hair cell domain”. In the data set with Atoh1 reporter cell line, the “upregulation of annotated genes (EGR1, SCIN, CYP1A1, CYP1B1, TACT, MAFF)” value is “greater than 3 fold” and the “upregulation of endogenous Atoh1” value is given as “not observed”.
